Patent US20260007802A1, “ANNEALED MICROGEL PARTICLE SYSTEMS AND METHODS” (Tempo Therapeutics, Inc., priority 2023, published 2026)

Key:
[1] = Chemical annealing kinetics, elastic modulus over time (Instron); type: physicochemical
Protocol: In the rat intradermal study (see Example 2), MAP was annealed using 0.1 mM PETMA (Pentaerythrivol tetras(2-mercaptoacetate)), a 4-thiol containing crosslinker. The thiol groups react with the free vinyl sulfones on the microgel particles in a thiol-ene Michael addition reaction. […] The optimization of the chemical annealing was performed with formulation 1-3. […] Briefly, gels initially formulated at a volume fraction of 100% was thoroughly mixed with the crosslinkers (0.1-0.2 mM) at different pHs, which led to diluting gels to 80%. The elastic modulus was measured at different time points using Instron.
Then, the different HA-MAP formulations were annealed using the selected annealing agent at 0.2 mM at pH 7.4. […] Elastic modulus over time was measured using Instron.
The final volume fraction for annealing was 80% for all annealing conditions.

[2] = test system: 3T3 fibroblasts; assay: In vitro cytocompatibility, WST-8 proliferation assay (Example 2); type: cell-based, mouse; conditions: WST-8, days 1, 3 and 6
Protocol: Prior to animal experiments, formulations 1-3 and formulations 4-5 were tested (all in the presence and absence of annealing chemistry) for cytocompatibility using immortalized and primary cells. The WST-8 proliferation assay was used to assess cell viability and compare to positive (vehicle) and negative (cytotoxic agent) controls. The formulations used are listed in Table 5 below, along with their characteristics.
In vitro experiments were performed in well plate format. Cells were grown in culture media in adherent culture, and then exposed to either (i) hydrogel microgel particle suspensions, (ii) hydrogel microgel particle suspensions actively undergoing the annealing process, or (iii) the reaction conditions of the annealing process including soluble components but in the absence of hydrogel microgel particles. After exposure, cells were grown in adherent culture for […], measuring proliferation at 1, 3, and 6 days after exposure.
3T3 fibroblasts were grown to 90% confluent and then suspended in DMEM at 2.5×10^6 cells/mL. Then, 2 μL of cell suspension was mixed with MAP (see Table 1 for description of the different formulations tested for cytocompatibility) and added to a 96-well plate. […] Cell viability was then measured at 450 nm using WST-8 kit.

Row | SMILES | time to full annealing ([1]; annealing agent with formulations 1-3 gels, pH 7.4) [min] | time before it is annealed ([1]; pH 6.5) [min] | cytotoxic effect on cell viability [2] | effect on kinetic of annealing and final stiffness ([1]; 0.3% wt, three batches of 4a, 0.2 mM PEG-dithiol 3.4 kDa, pH 7.4)
1 | O=C(CS)OCC(COC(=O)CS)(COC(=O)CS)COC(=O)CS [PETMA, Pentaerythritol tetrakis(2-mercaptoacetate)] | ≤ 5 | < 10 | dose dependent cytotoxic effect | 
2 | CCN(CC)CC(=O)Nc1c(C)cccc1C [lidocaine] |  |  |  | reduces the final stiffness after annealing and slightly slows down the reaction
